Reference: patent US6303591A, “21-hydroxy-6,19-oxidoprogesterone (21OH-6OP) and its use as medicament for treating excess of glucocorticoids” (Applied Research Systems ARS Holding NV, priority 1997, dated 2001)
“Also recorded” adds a separate entry of the source.

Legend:
[1] = test system: TAT induction in hepatocytes (GR); experiment: antagonism of TAT induction by DXM or B in hepatocytes; assay type: cell-based, rat
Method: Hatched bars represent incubations performed in the presence of vehicle instead of agonist.
Bioassay : Liver glycogen deposition was measured on adrenalectoniized male Sprague-Dawley rats (180-220 g) as follows: steroids were dissolved in ethanol/propylene glycol/0.9% NaCl solution (3:3:34) and 100 μg steroid/l00 g body weight were injected i.m. the previous night. On the morning of the experiment this dose was reinjected intraperitoneally. Three hours later the rats were killed by cervical dislocation and livers were immediately removed. Glycogen purification and quantification were carried out according to Krisman's method (17). Na^+ -retaining properties were measured as described (5). Tyrosine aminotransferase (TAT) was induced in rat hepatocytes isolated by the procedure of Fry et al (18). TAT activity was determined according to Granner and Tomkins (19).
The basal TAT activity in hepatocytes, denominated control in the figure, was measured by adding vehicle (final concentration: 0.2% ethanol) to the culture. […] 2.5 μM 21OH-6OP inhibits 80% of TAT induction when concubated with B or DXM.

[2] = molecular target: T1, CBG partially purified from rat plasma (Rattus norvegicus, UniProt P31211); experiment: displacement of (^3 H)-B binding to partially purified CBG
T1 construct: CBG partially purified from rat plasma; from tissue; host or cells: rat plasma, partially purified
T1 sequence (P31211 23-396): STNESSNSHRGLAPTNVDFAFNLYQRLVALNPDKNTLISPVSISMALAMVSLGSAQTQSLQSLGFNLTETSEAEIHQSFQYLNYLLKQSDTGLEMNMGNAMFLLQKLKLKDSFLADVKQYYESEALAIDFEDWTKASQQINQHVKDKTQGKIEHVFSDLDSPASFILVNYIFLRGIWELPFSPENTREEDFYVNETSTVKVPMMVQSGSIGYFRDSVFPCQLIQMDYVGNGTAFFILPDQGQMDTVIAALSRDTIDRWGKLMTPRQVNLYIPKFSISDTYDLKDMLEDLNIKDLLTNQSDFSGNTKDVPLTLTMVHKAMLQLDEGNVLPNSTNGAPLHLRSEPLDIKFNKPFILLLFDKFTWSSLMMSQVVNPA
Method: Relative binding affinity (RBA) for partially purified CBG was determined by steroid competition for (^3 H)-B binding as described previously (14).
The displacement curve of 6,19-oxidoprogesterone is included for comparative purposes.

C[C@]12CC[C@H]3[C@@H](C[C@H]4OC[C@@]35CCC(=O)C=C45)[C@@H]1CC[C@@H]2C(=O)CO [21OH-6OP, 21-hydroxy-6,19-oxidoprogesterone]
inhibition of TAT induction by B ([1]; 2.5 μM steroid vs 100 nM B): 80% | inhibition of TAT induction by DXM ([1]; 2.5 μM steroid vs 100 nM DXM): 80% | antagonism of TAT induction by B (in words) ([1]; 2.5 μM steroid, 100 nM B): shows antagonist effect on TAT induction; also recorded: antagonize TAT induction by corticosterone and decamethasone; also recorded: significantly inhibited | antagonism of TAT induction by DXM (in words) ([1]; 2.5 μM steroid, 100 nM DXM): shows antagonist effect on TAT induction; also recorded: antagonize TAT induction by corticosterone and decamethasone; also recorded: significantly inhibited | increase of binding to CBG by 21-hydroxyl, relative to 6OP ([2]; 21OH-6OP vs 6OP): hundred times | inhibition at 2.5 µM ([2]; 12 h, 2.5 μM, FIG. 2-B, read-out: block of CBG binding sites): ~60% | Kd ([2]; partially purified CBG, (^3 H)-B, 12 h at 0° C., read-out: RBA for CBG (Kd)): 1270 nM
